Reference: US20060289019A1, “Information method and system for generating data for optimizing a medical treatment, and equipment used in this system” (IPPM HOLDING SA, priority 2005, published 2006)

Key:
[1] = tested on: clozapine N-demethylation; conditions: cited from earlier work
[2] = male, human, in vivo
Method: A patient suffering from schizo-affective disorder and from dual personality disorder reacts correctly to clozapine (clozaril, 600 mg/day, blood concentration: 502 ng/mL). They are also treated with lithium (eskalith, 900 mg/day). […] After 11 days the patient had to be admitted to the emergency department because they had too high a blood level of clozapine (2112 ng/mL).
Thus, the DEM will transfer the pharmacogenetic data from the DGSB. It will find, according to the pharmacokinetic data and studies on clozapine-fluvoxamine interaction, an appropriate function and the corresponding statistical values. […] The dosage of fluvoxamine is sought to be maintained constant. Still with reference to FIG. 3, the straight line which is of interest therefore, is that for which the blood level is 5 μM. […] The equation of this straight line (according to data taken from a publication) is y=3.7×/1.8 ? x=1.8y/3.7. Therefore if y=502 ng/mL then x=502*1.8/3.7=244 ng/mL. This means that the current dosage would need to be reduced by at least a half in order to avoid too great an interaction between the two products and especially to prevent a worrying blood level of clozapine in the blood. This optimization reasoning will be carried out by the OS as a function of the data which are sent to it by the DEM.

Structure (SMILES) | clozapine N-demethylation inhibitor strength [1] | clozapine blood level x calculated from straight line x=1.8y/3.7 for y=502 ng/mL [2]
COCCCC/C(=N\OCCN)c1ccc(C(F)(F)F)cc1 [fluvoxamine] | strong | 
CN1CCN(C2=Nc3cc(Cl)ccc3Nc3ccccc32)CC1 [clozapine] |  | 244 ng/mL
